This is an account of results in ChEMBL document CHEMBL1147320, “Isolation of a novel tyrosine kinase inhibitor, lavendustin A, from Streptomyces griseolavendus” (J Nat Prod, 1989).

SMILES strings stand for the structures. Values after ≈ are worked out from the molar mass of the structure shown. Active and inactive are the calls of the source. The rule behind the calls is not given here.

The target of experiment [1] is Epidermal growth factor receptor (Mus musculus, UniProt Q01279). As to the kind of experiment: Inhibition of mouse EGFR by liquid scintillation counting.
The subject of another experiment is NIH3T3. Briefly: Cytotoxicity against RSV transformed mouse NIH/3T3 cells. The format is functional, cell-based.
Experiment [2] can be described thus: Inhibition of phosphatidylinositol kinase.
Experiment [3] is described as follows: Inhibition of protein kinase C.
Experiment [4] in a line: Inhibition of protein kinase A.
The nature of experiment [5]: Cytotoxicity against mouse NIH/3T3 cells. Format: cell-based. The following applies: NIH3T3.
The test system of the next experiment is L1210. As to the kind of experiment: Cytotoxicity against mouse L1210 cells. The format is functional, cell-based.
Experiment [6] deals with Epidermal growth factor receptor (Mus musculus) (UniProt Q01279). Briefly: Inhibition of mouse EGFR using [32P]gammaATP as substrate by competitive Lineweaver-Burke plot.
Experiment [7] has the same target. Briefly: Inhibition of mouse EGFR using tridecapeptide as substrate by uncompetitive Lineweaver-Burke plot.
In another experiment the test system is A-431. As to the kind of experiment: Cytotoxicity against human A431 cells. The format is functional, cell-based.
Another experiment deals with P388. Briefly: Cytotoxicity against mouse P388 cells. Format: functional, cell-based.
In experiment [8] the target is Epidermal growth factor receptor (Homo sapiens, UniProt P00533).
Chain of Epidermal growth factor receptor (Homo sapiens, UniProt P00533) (P00533 whole entry): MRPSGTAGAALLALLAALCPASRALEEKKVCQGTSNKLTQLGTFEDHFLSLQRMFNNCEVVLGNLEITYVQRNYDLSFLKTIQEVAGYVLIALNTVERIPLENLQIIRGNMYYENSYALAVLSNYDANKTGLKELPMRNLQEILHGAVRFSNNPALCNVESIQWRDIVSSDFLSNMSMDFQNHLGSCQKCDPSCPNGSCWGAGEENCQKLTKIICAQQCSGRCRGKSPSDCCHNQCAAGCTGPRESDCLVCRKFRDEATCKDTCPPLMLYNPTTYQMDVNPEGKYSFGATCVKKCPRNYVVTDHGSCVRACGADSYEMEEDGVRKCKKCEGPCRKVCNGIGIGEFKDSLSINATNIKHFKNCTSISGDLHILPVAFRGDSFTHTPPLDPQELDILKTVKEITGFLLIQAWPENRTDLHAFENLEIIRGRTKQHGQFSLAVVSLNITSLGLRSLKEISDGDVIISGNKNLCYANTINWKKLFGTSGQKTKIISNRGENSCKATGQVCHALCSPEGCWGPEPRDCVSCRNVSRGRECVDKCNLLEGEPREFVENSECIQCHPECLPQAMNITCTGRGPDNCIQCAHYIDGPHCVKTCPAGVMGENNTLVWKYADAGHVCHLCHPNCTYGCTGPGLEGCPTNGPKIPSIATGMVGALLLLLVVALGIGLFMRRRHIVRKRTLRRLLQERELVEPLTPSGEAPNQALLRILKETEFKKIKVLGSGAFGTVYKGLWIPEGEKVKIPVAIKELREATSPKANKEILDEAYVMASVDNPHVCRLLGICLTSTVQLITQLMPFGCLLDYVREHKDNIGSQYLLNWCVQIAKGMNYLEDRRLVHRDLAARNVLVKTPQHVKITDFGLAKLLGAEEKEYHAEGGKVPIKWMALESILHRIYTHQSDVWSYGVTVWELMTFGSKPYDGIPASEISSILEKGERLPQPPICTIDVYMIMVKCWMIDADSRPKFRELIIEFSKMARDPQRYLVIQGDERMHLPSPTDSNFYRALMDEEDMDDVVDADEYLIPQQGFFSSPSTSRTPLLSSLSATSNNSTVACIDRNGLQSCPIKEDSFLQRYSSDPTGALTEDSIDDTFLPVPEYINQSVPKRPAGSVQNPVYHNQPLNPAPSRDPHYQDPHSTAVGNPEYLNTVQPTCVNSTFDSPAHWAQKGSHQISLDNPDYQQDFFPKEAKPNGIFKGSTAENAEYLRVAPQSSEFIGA

Chain of Epidermal growth factor receptor (Mus musculus, UniProt Q01279) (Q01279 whole entry): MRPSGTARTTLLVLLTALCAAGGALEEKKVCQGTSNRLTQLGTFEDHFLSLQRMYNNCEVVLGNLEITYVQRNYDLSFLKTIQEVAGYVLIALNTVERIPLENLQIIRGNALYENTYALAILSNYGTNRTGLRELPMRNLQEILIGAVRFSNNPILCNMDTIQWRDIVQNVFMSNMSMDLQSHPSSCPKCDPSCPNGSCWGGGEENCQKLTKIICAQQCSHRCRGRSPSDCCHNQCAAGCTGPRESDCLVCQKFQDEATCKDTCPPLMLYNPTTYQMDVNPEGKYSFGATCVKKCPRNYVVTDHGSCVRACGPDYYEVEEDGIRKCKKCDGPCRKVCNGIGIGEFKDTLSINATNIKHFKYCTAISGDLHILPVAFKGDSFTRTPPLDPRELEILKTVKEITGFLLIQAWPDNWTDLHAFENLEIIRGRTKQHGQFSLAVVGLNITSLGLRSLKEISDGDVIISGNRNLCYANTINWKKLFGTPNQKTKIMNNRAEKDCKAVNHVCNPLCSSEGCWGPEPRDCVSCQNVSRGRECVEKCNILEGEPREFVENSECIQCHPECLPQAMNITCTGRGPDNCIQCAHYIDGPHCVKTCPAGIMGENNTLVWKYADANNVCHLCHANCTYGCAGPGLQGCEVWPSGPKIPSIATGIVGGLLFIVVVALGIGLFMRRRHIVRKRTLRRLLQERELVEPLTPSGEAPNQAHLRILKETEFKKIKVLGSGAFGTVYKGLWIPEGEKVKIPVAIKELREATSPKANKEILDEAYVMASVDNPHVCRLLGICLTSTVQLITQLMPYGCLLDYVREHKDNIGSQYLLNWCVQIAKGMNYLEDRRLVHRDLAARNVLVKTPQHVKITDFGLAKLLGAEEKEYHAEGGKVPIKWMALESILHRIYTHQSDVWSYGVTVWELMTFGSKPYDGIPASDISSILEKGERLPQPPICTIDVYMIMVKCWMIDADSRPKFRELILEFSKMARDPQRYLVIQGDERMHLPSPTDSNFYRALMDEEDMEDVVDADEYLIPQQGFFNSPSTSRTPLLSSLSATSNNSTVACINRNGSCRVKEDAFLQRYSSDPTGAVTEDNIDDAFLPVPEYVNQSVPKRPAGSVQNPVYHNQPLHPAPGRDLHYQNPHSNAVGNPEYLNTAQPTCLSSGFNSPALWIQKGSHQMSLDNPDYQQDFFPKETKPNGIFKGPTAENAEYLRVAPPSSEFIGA
Chain of Epidermal growth factor receptor (Mus musculus) (Q01279 whole entry): as above

In turn, `Nc1cc(C(=O)O)ccc1O` had an IC50 in [1] of more than 653 µM.

On to `O=C(O)c1cc(N(Cc2ccccc2O)Cc2cc(O)ccc2O)ccc1O` [LAVENDUSTIN A], for which the IC50 with NIH3T3 is 19.5 µg/mL (≈ 51.1 µM); in [2] it was 6.4 µg/mL (≈ 16.8 µM); in experiment [3] it was more than 100 µg/mL; in experiment [1], 0.0115 µM; in experiment [4], more than 100 µg/mL; in experiment [5], 22 µg/mL (≈ 57.7 µM). Also, the IC50 was 28 µg/mL (≈ 73.4 µM) in the experiment with L1210, 26 µg/mL (≈ 68.2 µM) in the experiment on A-431 and 21.5 µg/mL (≈ 56.4 µM) in the experiment with P388. For the same compound, the result in experiment [6] and in experiment [7] was Active.

`O=C(O)c1cc(N(Cc2cc(O)ccc2O)Cc2cc(O)ccc2O)ccc1O` showed an IC50 in [1] of 0.0277 µM.

`O=Cc1cc(O)ccc1O` had an IC50 in experiment [1] of 239 µM.

In [1], `O=C(O)c1cc(N(Cc2ccccc2O)Cc2ccccc2O)ccc1O` [LAVENDUSTIN B] had an IC50 of 1.34 µM.

Turning to `O=CN/C=C/c1cc(O)ccc1O` [ERBSTATIN], the IC50 in experiment [2] is 25 µg/mL (≈ 140 µM); in experiment [3], more than 179 µg/mL; in [1], 1.12 µM; in experiment [4], 100 µg/mL (≈ 558 µM); in experiment [8], 1.12 µM.

Turning to `O=C(O)c1ccc(O)c(N(Cc2ccccc2O)Cc2cc(O)ccc2O)c1`, in experiment [1], the IC50 was 0.446 µM.

In experiment [1], `O=C(O)c1cc(/N=C\c2cc(O)ccc2O)ccc1O` showed an IC50 of 2.78 µM.

`Nc1ccc(O)c(C(=O)O)c1` [MESALAMINE] showed an IC50 in experiment [1] of 17.6 µM.

Usually IC50 stands for the point on the concentration scale where inhibition reaches its midpoint. A higher IC50 goes with a need for much substance.
